From US8470822B2, “Folate mimetics and folate-receptor binding conjugates thereof” (Purdue Research Foundation, priority 2001, dated 2013)
pEC50: −log10 of the molar value.

Key:
[1] = tested on: folate-receptor-positive human KB cell tumor xenografts; experiment: Biodistribution of 111In radiotracer in KB tumor-bearing athymic mice after intravenous administration; assay type: in vivo
Protocol: Our primary animal model for evaluation of the biodistribution and pharmacokinetics of folate-receptor-targeted radiopharmaceuticals has been athymic mice bearing subcutaneously implanted folate-receptor-positive human KB cell tumors. […] After 3 weeks on folate-free diet, mouse serum folate levels drop to 25±7 nM from the initial 720±260 nM serum folate level when the animals are fed normal rodent chow. This dietary intervention is believed to be a reasonable manipulation of the animal model, since the mice would have serum folate levels only slightly higher than the folate concentration of normal human serum. Thus, in these mouse biodistribution studies the radiotracer is competing for tumor folate receptors with physiologically relevant concentrations of endogenous unlabeled serum folate.
The substantial retention of ^111In in the kidneys is fully consistent with the binding of ^111In-CYK4-013 to tissue folate receptors, since the renal proximal tubule is a known normal tissue site of folate receptor expression. […] The behavior of the ^111In-CYK4-013 radiopharmaceutical in this animal model (Table 2) is very similar to that observed for ^111In-DTPA-Folate (Table 3).
Results. Similar to ^111In-DTPA-Folate, ^111In-CYK4-013 selectively localized in the folate-receptor-positive tumor xenografts, and afforded prolonged tumor retention of ^111In (5.4±0.8; 5.5±1.1; and 3.6±0.6% ID/g at 1 hour, 4 hours, and 24 hours, respectively) (Table 2). […] Blockable binding was also observed in the kidneys, where the folate receptor occurs in the proximal tubules.

[2] = target: T1, folate receptor on KB cells (Homo sapiens, UniProt P15328); experiment: Relative binding affinity: competition with 3H-folic acid for binding to KB cells; details: 100 nM 3H-folic acid, 15 minutes on ice; for relative binding activity compared to folic acid: folic acid set to 1; for pEC50: read-out: EC50 (displacement of 3H-folic acid bound to folate receptor)
T1 construct: host or cells: KB cells (intact, trypsinized, suspended)
T1 sequence (P15328 25-234): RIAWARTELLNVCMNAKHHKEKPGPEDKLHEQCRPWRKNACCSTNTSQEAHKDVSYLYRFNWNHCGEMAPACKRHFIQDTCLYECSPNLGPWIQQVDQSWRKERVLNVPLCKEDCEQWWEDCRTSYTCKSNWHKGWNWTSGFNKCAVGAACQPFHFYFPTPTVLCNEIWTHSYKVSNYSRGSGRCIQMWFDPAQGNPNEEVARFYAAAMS
Protocol: Relative binding affinity. […] The relative affinity of various folate derivatives was determined according to the method described by Westerhoff et al. (Mol. Pharm., 1995, 48:459-471) with slight modification. Briefly, folate receptor-positive KB cells were gently trypsinized in 0.25% trypsin in phosphate-buffered saline (PBS) at room temperature for 3 minutes and then diluted in folate-free RPMI 1640 media (FFRPMI) (Gibco) supplemented with 10% heat-inactivated fetal calf serum. Following a 5 minute 800×g spin and one PBS wash, the final cell pellet was suspended in FFRPMI (no serum). […] Samples were centrifuged at 10,000×g for 5 minutes, cell pellets were suspended in buffer, transferred to individual vials containing 5 mL of scintillation cocktail, and then counted for radioactivity.
Binding activity. The binding activity of pteroyl hydrazide and pteroylhydrazido-BTCA-DAS was determined using the assay described in Example IV.

[3] = 4 Hours Post Injection BLOCKED, Folic Acid Dose 495 ± 79 μg/kg, n = 4

Nc1nc2ncc(CNc3ccc(C(=O)N[C@@H](CCC(=O)NCCNC(=O)CN(CCN(CCN(CC(=O)[O-])CC(=O)[O-])CC(=O)[O-])CC(=O)[O-])C(=O)O)cc3)nc2c(=O)[nH]1.[111In] [^111In-DTPA-Folate, reference compound]
Percentage of Injected 111In Dose Per Gram: Blood ([1]; 1 Hour Post Injection, n = 4): 0.14 ± 0.03 % ID/g | Percentage of Injected 111In Dose Per Gram: Heart ([1]; 1 Hour Post Injection, n = 4): 2.3 ± 0.4 % ID/g | Percentage of Injected 111In Dose Per Gram: Kidney ([1]; 1 Hour Post Injection, n = 4): 90 ± 9 % ID/g | Percentage of Injected 111In Dose Per Gram: Liver & Gall Bladder ([1]; 1 Hour Post Injection, n = 4): 4.0 ± 1.5 % ID/g | Percentage of Injected 111In Dose Per Gram: Lungs ([1]; 1 Hour Post Injection, n = 4): 1.3 ± 0.1 % ID/g | Percentage of Injected 111In Dose Per Gram: Muscle ([1]; 1 Hour Post Injection, n = 4): 3.5 ± 0.8 % ID/g | Percentage of Injected 111In Dose Per Gram: Spleen ([1]; 1 Hour Post Injection, n = 4): 0.36 ± 0.03 % ID/g | Percentage of Injected 111In Dose Per Gram: Stomach, Intestines & Contents ([1]; 1 Hour Post Injection, n = 4): 1.0 ± 0.2 % ID/g | Percentage of Injected 111In Dose Per Gram: Tumor ([1]; 1 Hour Post Injection, n = 4): 5.3 ± 0.4 % ID/g | Tumor/blood ratio ([1]; 1 Hour Post Injection, n = 4): 38 ± 7 | Tumor/kidney ratio ([1]; 1 Hour Post Injection, n = 4): 0.060 ± 0.011 | Tumor/liver ratio ([1]; 1 Hour Post Injection, n = 4): 1.5 ± 0.5 | Tumor/muscle ratio ([1]; 1 Hour Post Injection, n = 4): 1.6 ± 0.3 | Tumor/kidney ratio ([1]; 4 Hours Post Injection BLOCKED, Folic Acid Dose 495 ± 79 μg/kg): 0.050 ± 0.023 | Percentage of Injected 111In Dose Per Gram: Kidney ([1]; 4 Hours Post Injection BLOCKED, Folic Acid Dose 495 ± 79 μg/kg, n = 3, anomalous animal excluded): 2.3 ± 1.0 % ID/g | Percentage of Injected 111In Dose Per Gram: Blood [1, 3]: 0.029 ± 0.011 % ID/g | Percentage of Injected 111In Dose Per Gram: Heart [1, 3]: 0.022 ± 0.010 % ID/g | Percentage of Injected 111In Dose Per Gram: Liver & Gall Bladder [1, 3]: 0.12 ± 0.03 % ID/g | Percentage of Injected 111In Dose Per Gram: Lungs [1, 3]: 0.065 ± 0.021 % ID/g | Percentage of Injected 111In Dose Per Gram: Muscle [1, 3]: 0.023 ± 0.013 % ID/g | Percentage of Injected 111In Dose Per Gram: Spleen [1, 3]: 0.060 ± 0.021 % ID/g | Percentage of Injected 111In Dose Per Gram: Stomach, Intestines & Contents [1, 3]: 0.49 ± 0.20 % ID/g | Percentage of Injected 111In Dose Per Gram: Tumor [1, 3]: 0.16 ± 0.07 % ID/g | Tumor/blood ratio [1, 3]: 5.5 ± 0.8 | Tumor/liver ratio [1, 3]: 1.4 ± 0.4 | Tumor/muscle ratio [1, 3]: 8.4 ± 3.8 | Percentage of Injected 111In Dose Per Gram: Blood ([1]; 4 Hours Post Injection, n = 4): 0.064 ± 0.007 % ID/g | Percentage of Injected 111In Dose Per Gram: Heart ([1]; 4 Hours Post Injection, n = 4): 2.0 ± 0.3 % ID/g | Percentage of Injected 111In Dose Per Gram: Kidney ([1]; 4 Hours Post Injection, n = 4): 85 ± 12 % ID/g | Percentage of Injected 111In Dose Per Gram: Liver & Gall Bladder ([1]; 4 Hours Post Injection, n = 4): 2.2 ± 0.4 % ID/g | Percentage of Injected 111In Dose Per Gram: Lungs ([1]; 4 Hours Post Injection, n = 4): 1.1 ± 0.3 % ID/g | Percentage of Injected 111In Dose Per Gram: Muscle ([1]; 4 Hours Post Injection, n = 4): 2.9 ± 0.7 % ID/g | Percentage of Injected 111In Dose Per Gram: Spleen ([1]; 4 Hours Post Injection, n = 4): 0.35 ± 0.11 % ID/g | Percentage of Injected 111In Dose Per Gram: Stomach, Intestines & Contents ([1]; 4 Hours Post Injection, n = 4): 1.0 ± 0.2 % ID/g | Percentage of Injected 111In Dose Per Gram: Tumor ([1]; 4 Hours Post Injection, n = 4): 6.8 ± 1.2 % ID/g | Tumor/blood ratio ([1]; 4 Hours Post Injection, n = 4): 106 ± 15 | Tumor/kidney ratio ([1]; 4 Hours Post Injection, n = 4): 0.080 ± 0.012 | Tumor/liver ratio ([1]; 4 Hours Post Injection, n = 4): 3.3 ± 1.1 | Tumor/muscle ratio ([1]; 4 Hours Post Injection, n = 4): 2.5 ± 0.9

NNC(=O)c1ccc(NCc2cnc3nc(N)nc(O)c3n2)cc1 [Pteroyl hydrazide, pteroyl hydrazide]
relative binding activity compared to folic acid [2]: 0.74 | pEC50 [2]: 7.03

Nc1nc2ncc(CNc3ccc(C(=O)NC(C(=O)O)c4ccccn4)cc3)nc2c(=O)[nH]1 (stereo not drawn) [Pte-AP, N-pteroyl-2-amino-2-carboxymethylpyridine]
relative binding activity compared to folic acid [2]: 0.48 | pEC50 [2]: 6.71

Nc1nc(O)c2nc(CNc3ccc(C(=O)O[C@H](C(=O)O)c4ccccc4)cc3)cnc2n1 [ACBP, (S)-α-carboxybenzoyl pteroate]
relative binding activity compared to folic acid [2]: 0.46 | pEC50 [2]: 6.69
